In ChEMBL document CHEMBL1157539, “Thousands of chemical starting points for antimalarial lead identification” (Nature, 2010):
Non-standard residues stand in square brackets, D forms with d. Residues, ends and D or L forms follow the SMILES beside them. *: point of attachment. Butanoyl(4-(4-HOPh)) = O=C(CCCc1ccc(O)cc1)*

Tested on: Plasmodium falciparum
Test: GSK_TCMDC: Inhibition of Plasmodium falciparum 3D7 in whole erythrocytes, using parasite LDH activity as an index of growth.
Format: functional, organism-based
Conditions: Plasmodium falciparum, 3D7

| SMILES | XC50 |
| --- | --- |
| CS(=O)(=O)N(c1ccc(F)cc1)c1cc(C(=O)N[C@@H](Cc2ccccc2)[C@H](O)CNCc2cccc(C(F)(F)F)c2)cc(N2CCCC2=O)c1 | 1350 nM |
| O=C(N[C@@H](CC1CCCCC1)C(=O)NCCN1CCCC1)c1ccc(O)c(-c2ccc(Cl)c(Cl)c2)c1 | 312 nM |
| COc1ccccc1N1CCN(CCCCNC(=O)c2ccc(NC(=O)c3cc4ccccc4o3)cc2)CC1 | 978 nM |
| CS(=O)(=O)CCNCc1cc(-c2cc3ncnc(Nc4ccc(OCc5cccc(F)c5)c(Cl)c4)c3s2)cs1 | 326 nM |
| COc1ccc(-c2ccc(NC(=O)c3cccc(Cl)c3)cc2)cc1CN1CCN(C)CC1 | 951 nM |
| COc1ccc2ncc(Cl)c([C@H](O)CN3CCC(NCc4cc5c(cn4)OCCO5)CC3)c2c1 | 116 nM |
| Cc1cc(O)c(-c2ccc(Oc3ccc(F)cc3)cc2)c(C)n1 | 972 nM |
| FC(F)(F)c1ccc2[nH]c(-c3ccc(-c4ccc(CNCc5ccccc5)cc4)cc3)nc2c1 | 143 nM |
| Cc1nc2ccccc2c(=O)n1/N=C/c1ccccc1[N+](=O)[O-] | 221 nM |
| Cc1ccc2sc(N3CCN(C(=O)c4ccc([N+](=O)[O-])o4)CC3)nc2c1C | 945 nM |
| COc1ccc(-c2cc(-c3nc4cc(C(=O)N5CCOCC5)ccc4[nH]3)c(=O)n(C)c2)cc1OC | 863 nM |
| O=C(/C=C/c1ccc(Cl)c(Cl)c1)N1CCC(CCCN2CCC(c3c[nH]c4ccccc34)CC2)CC1 | 707 nM |
| CC(=O)Nc1ccc(CN2CCc3ccc(NS(=O)(=O)c4cccc(OCc5ccc(Cl)cc5)c4)cc3CC2)s1 | 906 nM |
| COc1ccc(CCNCc2ccc3nc(N)cc(C)c3c2)cc1 | 214 nM |
| CN1CCCC(CN2CCN(Cc3cccc(-c4csc(-c5nc6ccccc6[nH]5)c4)c3)CC2)C1 (centres undefined) | 414 nM |
| CO/C(=C/C=C/c1cc2cc(Cl)c(Cl)cc2[nH]1)C(=O)NC1CC(C)(C)N(C)C(C)(C)C1 | 783 nM |
| Cc1cc(=NN=CC=Cc2ccccc2)c2cc(F)ccc2[nH]1 | 734 nM |
| COc1cccc(-c2cccc(CNC3CCN(CC4Cn5c(=O)ccc6ccc(F)c4c65)CC3)c2)c1 (centres undefined) | 934 nM |
| Cc1cc(NC(=O)Nc2ccc(Cl)cc2F)c2ccccc2n1 | 547 nM |
| O=C(Nc1cccc(CN2CCCN(Cc3ccsc3)CC2)c1)c1cc2ccccc2s1 | 758 nM |
| O=[N+]([O-])c1cccc(-n2nc(NCc3ccc(Cl)cc3)nc2-c2ccc(F)c(C(F)(F)F)c2)c1 | 243 nM |
| CCc1ccc(C2CCN(CCCCNC(=O)c3ccc(NC(=O)c4ccc(Cl)cc4)cc3)CC2)cc1 | 646 nM |
| O=C1NC(C(=O)Nc2ccccc2)C(c2ccccc2)S1 (centres undefined) | 168 nM |
| CN1CCN(C(C(=O)NCc2cc(Cl)cc(Cl)c2)c2ccc(NC(=O)Nc3ccccc3)cc2)CC1 (centres undefined) | 692 nM |

| SMILES | XC50 |
| --- | --- |
| O=C(Nc1ccc2c(c1)CCNCC2)Nc1ccc2ccccc2c1 | 622 nM |
| O=C(NC(=S)NCc1ccncc1)c1ccccc1 | 1690 nM |
| NS(=O)(=O)CCc1cccc(Nc2nccc(-c3c(-c4cccc(NC(=O)c5c(F)cccc5F)c4)nn4ccccc34)n2)c1 | 58.4 nM |
| CN1CCN(Cc2cc(NC(=O)c3ccc(-c4ccc(Cl)cc4Cl)cc3)ccc2-c2ccccc2)CC1 | 973 nM |
| COc1ccc(CNc2nc(NCc3ccc(C(F)(F)F)cc3)c3cc(OC)c(OC)cc3n2)cc1OC | 210 nM |
| CCn1cc(-c2nc(-c3cc(OC)cc(OC)c3)no2)c(=O)c2ccccc21 | 338 nM |
| CCc1cn(C)c2c(N3CCCC3=O)cc(C(=O)N[C@@H](Cc3ccccc3)[C@H](O)CNCc3cccc(OC)c3)cc12 | 784 nM |
| COc1cc(Cc2cnc3nc(N)nc(N)c3c2C)cc(OC)c1OC | 64.2 nM |
| CCCCCCN1CCN(Cc2cccc(NC(=O)c3ccc(Cl)c(Cl)c3)c2)CC1 | 610 nM |
| Cc1cc(N[C@@H](CC(C)C)C(=O)NCCc2ccccc2)nc(NCC2CCCCC2)n1 | 904 nM |
| COC(=O)c1ccc(CC(C)NCC(O)c2cccc(C(F)(F)F)c2)cc1C (centres undefined) | 974 nM |
| O=C(Nc1ccc(Cl)cc1)Nc1cccc(-c2ccc(-c3nc4ccccc4[nH]3)cc2)c1 | 928 nM |
| O=[N+]([O-])c1cccc(/C=N/Nc2ccnc3ccc(C(F)(F)F)cc23)c1 | 1090 nM |
| CC(C)c1sc(-c2ccc(C(C)(C)C)cc2)nc1C(=O)NCCCN1CCCC1=O | 672 nM |
| N=C(NCCc1ccc(Cl)cc1)c1ccc(Cl)c(Cl)c1 | 1100 nM |
| O=C(Cn1c(=O)cnc2ccccc21)Nc1cccc(C(=O)Nc2cccc(C(F)(F)F)c2)c1 | 277 nM |
| O=[N+]([O-])c1cc2c(cc1C=NNc1nc(=Nc3ccccc3)[nH]c(=Nc3ccccc3)[nH]1)OCO2 | 866 nM |
| O=C(/C=C/c1ccc(Cl)c(Cl)c1)NCCCCCN1CCC(c2n[nH]c(-c3ccccc3)c2Br)CC1 | 723 nM |
| CCN(CC)CCNC(=O)c1ccc(NC(=O)c2oc3c(Cl)cccc3c2C)cc1 | 703 nM |
| CC(C)c1ccc(CN2CCCCC(NC(=O)c3cc(-c4ccccc4Cl)cs3)C2)cc1 (centres undefined) | 1120 nM |
| CCCCc1ccc2ncc(C(=O)OCC)c(O)c2c1 | 632 nM |
| CCCn1cc2c(ccc3nc(N)nc(N)c32)n1 | 81.4 nM |
| O=C(NCCCCN1CCC(c2ccc3c(c2OCCCO)CCCC3)CC1)c1ccc(-c2ccc(C(F)(F)F)cc2)cc1 | 718 nM |
| O=C(NCC(=O)N1CCC[C@H]1C(=O)O)[C@@H](Cc1ccccc1)NC(=O)[C@@H]1CCCN1C(=O)CCCc1ccc(O)cc1 ({Butanoyl(4-(4-HOPh))}-P[dF]GP-OH) | 1050 nM |

| SMILES | XC50 |
| --- | --- |
| CO/C(=C\C=C\c1cc2cc(Cl)c(Cl)cc2[nH]1)C(=O)NCCCNCCN(C)c1ccccc1 | 784 nM |
| Cc1nc(N)nc(N)c1OCCCOc1ccccc1Br | 4.1 nM |
| O=C(Cc1ccc(NC(=O)c2ccc(O)c(-c3ccc(Cl)c(Cl)c3)c2)cc1)NCCN1CCCCC1 | 841 nM |
| Cc1cc2nc(-c3ccc(/C=C/C(=O)NCCc4ccccc4)cc3)[nH]c2cc1C | 779 nM |
| Cc1ccc(Oc2ncccc2C(=O)Nc2cccc3cccnc23)c(C)c1 | 225 nM |
| N#Cc1ccc(N/C(=N\c2ccc(-c3ccccc3)cc2)NCc2cccnc2)c(O)c1 | 813 nM |
| Cc1cc(C)c2nc(N3CCC(C(=O)NCCCN4CCC(N5CCCCC5)CC4)CC3)sc2c1 | 838 nM |
| Fc1ccc(CNc2nc(-c3ccc(F)c(C(F)(F)F)c3)n(-c3cccc(C(F)(F)F)c3)n2)cc1 | 563 nM |
| CC(C)Sc1nc2c(c(=O)n1CCc1ccccc1)C1(CCCCC1)Cc1ccccc1-2 | 1870 nM |
| Clc1ccc2c(NN=Cc3ccco3)ccnc2c1 | 1100 nM |
| CCCOc1cccc(C(=O)N[C@@H](Cc2ccccc2)[C@H](O)CNCc2ccccc2OC)c1 | 883 nM |
| Cc1cc(OCCN2CCCCC2)ccc1NC(=O)c1cccc2c(=O)n(Cc3ccc(Cl)cc3)cnc12 | 1060 nM |
| O=C(Nc1cccc(CN2CCN(C(=O)c3cccc(F)c3)CC2)c1)c1cccs1 | 372 nM |
| COc1cc2nccc(Nc3ccc(OCc4ccc(NC(C)=O)cc4)cc3)c2cc1OC | 553 nM |
| O=C(/C=C/c1ccc(Cl)c(Cl)c1)NCc1ccc(CN2CCC(c3c[nH]c4ccccc34)CC2)cc1 | 711 nM |
| COc1ccc(N(C)Cc2cnc3nc(N)nc(N)c3n2)cc1 | 284 nM |
| CC(C)C[C@@H](C(=O)Nc1ccc(Cc2ccc(NC(=O)[C@H](CC(C)C)N(C)C(=O)OC(C)(C)C)cc2)cc1)N(C)C(=O)OC(C)(C)C | 821 nM |
| CC(=O)Nc1ccc(OCCN(Cc2ccccc2C(F)(F)F)c2ccc(C#N)c(C(F)(F)F)c2)c(Cl)c1 | 619 nM |
| CC(Cc1ccc(CN(CC(N)=O)Cc2ccc(CC(C)NCCc3cccc(Cl)c3)cc2)cc1)NCCc1cccc(Cl)c1 (centres undefined) | 665 nM |
| O=C(Nc1ccc(-c2nc3ccccc3[nH]2)cc1)c1ccc(S(=O)(=O)N2CCc3ccccc32)cc1 | 741 nM |
| CCn1c(Sc2ccc(C#N)c([N+](=O)[O-])c2)nnc1-c1cc(OC)cc(OC)c1 | 565 nM |
| CCNc1cc(C(=O)N[C@@H](Cc2ccc(F)c(F)c2)[C@H](O)CNC2CCCCC2)cc(N2CCCCS2(=O)=O)c1 | 117 nM |
| CN1CCN(Cc2ccc(-c3ccc4c(Nc5ccc(Cl)cc5F)ccnc4c3)o2)CC1 | 155 nM |
| CC1(C)CCCN(C(=O)c2cccc(-n3nc(-c4ccc(Cl)cc4)cc3N)c2)C1 | 712 nM |

| SMILES | XC50 |
| --- | --- |
| COc1cccc(CNc2ncc(-c3ccsc3)c(-c3nccs3)n2)c1 | 422 nM |
| COCCOc1ccc(Nc2nccc(-c3c(-c4cccc(NC(=O)c5c(F)cccc5F)c4)nn4ccccc34)n2)cc1F | 950 nM |
| O=C(/C=C/c1ccc(Cl)c(Cl)c1)NCCCCCN1CCCN(C(=O)Nc2ccc([N+](=O)[O-])cc2)CC1 | 615 nM |
| CCN(CCCN1CCCCC1)c1cc(C)nc(Nc2ccc(C)cc2C)n1 | 351 nM |
| CCCCCN1CCC(NS(=O)(=O)c2cccc(C(=O)Nc3ccc(C(F)(F)F)cc3)c2)C1 (centres undefined) | 798 nM |
| Cc1cc(N(C)C)nc(Nc2ccc(NC(=O)c3c(F)cccc3Cl)cc2)n1 | 1090 nM |
| O=C(Nc1cccc(N2CCC(NCc3cnn(-c4cccc(F)c4)c3)CC2)c1)c1ccncc1 | 1390 nM |
| CCCCCCCCS(=O)(=O)NCCCC1CCN(CCCCCNC(=O)C=Cc2ccc(Cl)c(Cl)c2)CC1 | 858 nM |
| CC(C)C[C@H](Nc1ccc(C#N)c2ccccc12)C(=O)NC(C)(C)C12CC3CC(CC(C3)C1)C2 | 916 nM |
| Cc1ccc2nc(C)cc(NC(=O)Nc3ccc(N(C)C)cc3)c2c1 | 541 nM |
| CN1c2ccccc2Sc2cc(CNCCSCCNCc3ccc4c(c3)Sc3ccccc3N4C)ccc21 | 1010 nM |
| O=C(OCc1ccccn1)c1nc2ccccc2[nH]1 | 793 nM |
| O=C(C=Cc1ccc(Cl)c(Cl)c1)NCCCCCN1CCCC(CCCNC(=O)c2sc3ccccc3c2Cl)C1 (centres undefined) | 1030 nM |
| COc1ccc2nccc(CCC3(O)CCC(NCc4cc5c(cc4F)SCC(=O)N5)CC3)c2c1 (centres undefined) | 675 nM |
| CC(C)Cn1cc(C2CCN(CCN3CCC(CNC(=O)c4ccc(-c5ccc(C#N)cc5)cc4)CC3)CC2)c2ccccc21 | 786 nM |
| CN1CCC(Oc2cc(NC(=O)Nc3ccc(-c4ccncc4)c(Cl)c3)ccc2Cl)CC1 | 530 nM |
| O=C(/C=C/c1ccc(Cl)cc1)NCCCCCN1CCC(C(=O)Nc2ccc(Cl)cc2)CC1 | 832 nM |
| c1cn(CCCNc2ncc(-c3ccsc3)c(-c3nccs3)n2)cn1 | 646 nM |
| Cc1ccc(Nc2nc(C)cc(NC3CCCC3)n2)cc1 | 292 nM |
| CNCCNCc1ccc(-c2ccc(-c3nc4cc(C(F)(F)F)ccc4[nH]3)s2)cc1 | 604 nM |
| C=C[C@H]1CN2CC[C@H]1C[C@H]2[C@H](O)c1ccnc2ccccc12 [CINCHONIDINE] | 172 nM |
| CC(C)Nc1cc(C(=O)N[C@@H](Cc2ccccc2)[C@H](O)CNCc2cccc(C(F)(F)F)c2)c(F)c(N2CCCCS2(=O)=O)c1 | 794 nM |
